This assay has as its system rhythmic bladder contractions (micturition reflex). Nature of the assay: Inhibitory effect on rhythmic bladder contractions (micturition reflex). It is filed as in vivo, Female Std-Wistar rats. To be noted: i.d., rat; for inhibition in vivo at 10 mg/kg / inhibition in vivo at 30 mg/kg: intraduodenal, mean over two hours, read-out: Inhibitory rate on contractile frequency; for inhibition in vivo at 10 mg/kg / ED50 / inhibition in vivo at 30 mg/kg: 2 h; for ED50: two hours, read-out: ED50, inhibitory effect on contractile frequency; for Potency on frequency of rhythmic bladder contractions relative to inaperisone hydrochloride (Compound A): compared with Compound A. The protocol: Inhibitory effect on rhythmic bladder contractions (micturition reflex)
The experiment was carried out according to the method of Maggi, C. […] It is generally accepted that the rhythmic bladder contractions evoked by instillation of saline solution into the bladder are mediated via the micturition reflex pathway like that of natural urination.
Female Std-Wistar rats weighing 160-190 g were used in groups of 3-4 animals. Under urethane anesthesia (1 g/kg, s.c.), both ureters were tied and cut at the side of kidney after a mid line incision of the abdomen. A cannula, connected to a syringe and a pressure transducer, was inserted into the bladder via the external urethral orifice and ligated around the proximal urethra. The animal was allowed to stay for about 30 minutes after the operation. The bladder was slowly filled with warm saline solution (0.4-1 ml) by means of a syringe until rhythmic contractions were induced. The change of the intravesical pressure was recorded on a recorder via a pressure transducer. After the rhythmic contractions became constant, test compounds dissolved or suspended in 0.5% aqueous tragacanth solution were administered via the cannula inserted for intraduodenal administration. The effect of each compound on the contractile frequency was investigated every 15 minutes till two hours after the administration.
The inhibitory rate on the contractile frequency (two hours) was expressed as the mean value of the inhibitory rates at an every 15-minute interval for two hours after the administration, which was determined based on the contractile frequency for 15 minutes before the administration.

Structures can show the parent of a compound that is named as a salt.

In general, ED50 refers to the dose at which the effect has come halfway, by size or by number of responders.

Take `C1=C(CCCN2CCCCC2)CCc2ccccc21` [Ex. 3]: the “Effect on the amplitude of contraction” value is recorded as “suppressed the amplitude of contraction” and the inhibition in vivo at 10 mg/kg came to 38%.
Consider `C1=C(CCCCN2CCCC2)CCc2ccccc21` [Ex. 4], for which the median effective dose (ED50) stood at 11.4 mg/kg, the “Effect on the amplitude of contraction” value is reported as “suppressed the amplitude of contraction” and the “Potency on frequency of rhythmic bladder contractions relative to inaperisone hydrochloride (Compound A)” value is on record as approximately 3 times more potent.
For the compound `C1=C(CCCCN2CCCCC2)CCc2ccccc21` [Ex. 6], the inhibition in vivo at 10 mg/kg worked out at 42%.
Regarding `Fc1cccc2c1CCC(CCN1CCCCC1)=C2` [Ex. 8], the inhibition in vivo at 30 mg/kg came out at 62%.
`Fc1cccc2c1CCC(CCN1CCCCCC1)=C2` [Ex. 9]: the inhibition in vivo at 10 mg/kg was found to be 47%.
Regarding `Fc1ccc2c(c1)CCC(CCN1CCCC1)=C2` [Ex. 10], the inhibition in vivo at 10 mg/kg amounted to 33%.
`Fc1ccc2c(c1)CCC(CCN1CCCCC1)=C2` [Ex. 11]: the inhibition in vivo at 30 mg/kg is 60%.
On to `Fc1ccc2c(c1)C=C(CCN1CCCC1)CC2` [Ex. 12], for which the “Effect on the amplitude of contraction” value is “suppressed the amplitude of contraction” and the inhibition in vivo at 10 mg/kg was 35%.
With `Fc1ccc2c(c1)C=C(CCN1CCCCC1)CC2` [Ex. 13], the inhibition in vivo at 30 mg/kg was determined as 77%.
In the case of `Clc1cccc2c1CCC(CCN1CCCC1)=C2` [Ex. 14], the inhibition in vivo at 10 mg/kg came out at 49%.
Regarding `Clc1ccc2c(c1)C=C(CCN1CCCC1)CC2` [Ex. 15], the inhibition in vivo at 10 mg/kg was 44%.
Turning to `Cc1cccc2c1CCC(CCN1CCCCC1)=C2` [Ex. 18], the inhibition in vivo at 30 mg/kg turned out to be 51%.
Take `Cc1ccc2c(c1)C=C(CCN1CCCC1)CC2` [Ex. 20]: the “Effect on the amplitude of contraction” value is listed as “suppressed the amplitude of contraction” and the inhibition in vivo at 30 mg/kg came to 67%.
With `COc1cccc2c1CCC(CCN1CCCCC1)=C2` [Ex. 26], the ED50 is 29.1 mg/kg and the “Effect on the amplitude of contraction” value was “suppressed the amplitude of contraction”.
Consider `COc1cccc2c1CCC(CCCCCN1CCCCC1)=C2` [Ex. 32], for which the inhibition in vivo at 10 mg/kg came to 47%.
In the case of `COc1ccc2c(c1)C=C(CCN1CCCCC1)CC2` [Ex. 34], the inhibition in vivo at 30 mg/kg was 65%.
Take `Fc1cc2c(cc1F)CCC(CCN1CCCC1)=C2` [Ex. 36, 1-[2-(6,7-difluoro-3,4-dihydro-2-naphthalenyl)ethyl]pyrrolidine]: the ED50 came to 12.9 mg/kg, the “Effect on the amplitude of contraction” value was “suppressed the amplitude of contraction” and the “Potency on frequency of rhythmic bladder contractions relative to inaperisone hydrochloride (Compound A)” value is recorded as approximately 3 times more potent.
Turning to `Cc1cc2c(cc1C)CCC(CCN1CCC1)=C2` [Ex. 41], the “Effect on the amplitude of contraction” value was “suppressed the amplitude of contraction” and the inhibition in vivo at 10 mg/kg is 38%.
Take `Cc1cc2c(cc1C)CCC(CCN1CCCCCC1)=C2` [Ex. 44]: the inhibition in vivo at 10 mg/kg turned out to be 34%.
On the same count and under the same terms, as for `Cc1cc2c(cc1C)CCC(CCN1CCCCCCC1)=C2` [Ex. 45], the figure is 48%.
Take `CCc1cc2c(cc1CC)CCC(CCN1CCCC1)=C2` [Ex. 46, 1-[2-(6,7-diethyl-3,4-dihydro-2-naphthalenyl)ethyl]pyrrolidine]: the ED50 was 12.4 mg/kg.
As for `C1=C(CCN2CCCC2)CCc2cc3c(cc21)CCC3` [Ex. 47], the inhibition in vivo at 10 mg/kg was 37%.
Regarding `C1=C(CCN2CCCC2)CCc2cc3c(cc21)OCO3` [Ex. 49], the “Effect on the amplitude of contraction” value is given as “suppressed the amplitude of contraction” and the inhibition in vivo at 10 mg/kg was determined as 46%.
Taken in the same sequence, the figures for `Cc1cc2c(cc1C)CCC(CCN1C(C)CCC1C)=C2` (centres unmarked) [Ex. 50, 1-[2-(3,4-dihydro-6,7-dimethyl-2-naphthalenyl)ethyl]-2,5-dimethylpyrolidin] were “suppressed the amplitude of contraction” and 50%.
As for `Fc1cc(F)c2c(c1)C=C(CCN1CCCC1)CC2` [Ex. 52, 1-[2-(5,7-difluoro-3,4-dihydro-2-naphthalenyl)ethyl]-pyrrolidine], the inhibition in vivo at 10 mg/kg came out at 52%.
For `Fc1cccc2c1CCC(CCN1CCC(F)C1)=C2` (centres unmarked) [Ex. 53], the inhibition in vivo at 10 mg/kg was found to be 35%.
For `Fc1ccc2c(c1F)CCC(CCN1CCCC1)=C2` [Ex. 54], the inhibition in vivo at 10 mg/kg was determined as 43%.
For the compound `Fc1ccc(F)c2c1C=C(CCN1CCCC1)CC2` [Ex. 55], the inhibition in vivo at 10 mg/kg was 43%.
`COC(=O)c1ccc2c(c1)C=C(CCN1CCCC1)CC2` [Ex. 56, 1-[2-(3,4-Dihydro-7-methoxycarbonyl-2-naphthalenyl)ethyl]pyrrolidine]: the “Effect on the amplitude of contraction” value was “suppressed the amplitude of contraction” and the inhibition in vivo at 10 mg/kg came to 34%.
Regarding `COc1ccc2c(c1)C=C(CCN1CCCC1)CC2` [Ex. 58, 1-[2-(3,4-dihydro-7-methoxy-2-naphthalenyl)ethyl]-pyrrolidine], the inhibition in vivo at 10 mg/kg was 34%.
For the compound `OC1CCN(CCC2=Cc3ccccc3CC2)C1` (centres unmarked) [Ex. 60, 1-[2-(3,4-Dihydro-2-naphthalenyl)ethyl]-3-hydroxypyrrolidine hydrochloride], the inhibition in vivo at 10 mg/kg turned out to be 33%.
`COc1cc2c(cc1OC)CCC(CCN1CCCC1)=C2` [Ex. 62, 1-[2-(3,4-dihydro-6,7-dimethoxy-2-naphthalenyl)ethyl]-pyrrolidine]: the median effective dose (ED50) amounted to 6.1 mg/kg, the “Effect on the amplitude of contraction” value is “suppressed the amplitude of contraction” and the “Potency on frequency of rhythmic bladder contractions relative to inaperisone hydrochloride (Compound A)” value was “approximately 5.7 times more potent”.
With `Cc1cc2c(cc1C)CCC(CCN1CCC(O)C1)=C2` (centres unmarked) [Ex. 66], the inhibition in vivo at 10 mg/kg is 34%.
For the compound `COc1cc2c(cc1C)CCC(CCN1CCCC1)=C2` [Ex. 68, 1-[2-(3,4-dihydro-7-methoxy-6-methyl-2-naphthalenyl)ethyl]pyrrolidine], the median effective dose (ED50) was 7.4 mg/kg, the “Effect on the amplitude of contraction” value is on record as “suppressed the amplitude of contraction” and the “Potency on frequency of rhythmic bladder contractions relative to inaperisone hydrochloride (Compound A)” value is on record as approximately 4.7 times more potent.
For `Cc1cc2c(cc1CO)CCC(CCN1CCCC1)=C2` [Ex. 72, 1-[2-(3,4-dihydro-6-hydroxymethyl-7-methyl-2-naphthalenyl)ethyl]pyrrolidin], the “Effect on the amplitude of contraction” value is “suppressed the amplitude of contraction” and the inhibition in vivo at 10 mg/kg was 49%.
On to `Cc1cc2c(cc1C(=O)O)CCC(CCN1CCCC1)=C2` [Ex. 74, 1-[2-(6-carboxy-3,4-dihydro-7-methyl-2-naphthalenyl)-ethyl]pyrrolidine], for which the inhibition in vivo at 10 mg/kg is 42%.

Values taken from US5847159A, “1-[ω-(3,4-dihydro-2-naphthalenyl)alkyl]-cyclic amine derivatives, process for preparing the same, and pharmaceutical composition containing the same” (priority 1995, dated 1998).
